Earlier results, collected in article PMC9316000, “Preclinical Drug Pharmacokinetic, Tissue Distribution and Excretion Profiles of the Novel Limonin Derivate HY-071085 as an Anti-Inflammatory and Analgesic Candidate in Rats and Beagle Dogs” (Pharmaceuticals, 2022).
Where two headings read alike, the source gives them in different places.

Key:
[1] = set-up: method as in PMID 16435568; conditions: cited from earlier work
[2] = set-up: method as in earlier work; conditions: Temp 25℃; cited from earlier work
[3] = set-up: method as in earlier work; conditions: Temp 25℃; cited from earlier work; remark: listed apart in the source
[4] = set-up: method as in earlier work; conditions: Temp 25℃, pH 7.0; cited from earlier work

Q: For `CC1(C)O[C@H]2CC(=O)OC[C@]23[C@H]2CC[C@@]4(C)[C@H](c5ccoc5)OC(=O)[C@H]5O[C@]54[C@]2(C)C(=O)C[C@@H]13` [Limonin], which “exposure of female rats relative to male rats” value ([1]; intravenous administration) is on record?
A: three-fold higher

Q: What about the “exposure of female rats relative to male rats” value ([1]; oral administration) of the same compound?
A: 50 fold

Q: What about the logP [2] of the same compound?
A: 0.474

Q: What about the Intrinsic solubility [3] of the same compound?
A: 220 µg/mL

Q: And the LogD [4]?
A: 0.47
